Laboratory results published in patent US20250281456A1, “METHODS OF TREATING CANCER BY INHIBITING BACTERIAL DNAK TO RESTORE ACTIVITIES OF ANTICANCER DRUGS” (University of Maryland, Baltimore, priority 2022, published 2025).
Where a SMILES comes first, the peptide text is derived from it. [ ]: non-standard residue; d: D form. Ac6c = NC1(C(=O)O)CCCCC1

What was measured:
Escherichia coli DnaK = Escherichia coli DnaK (Escherichia coli, UniProt P0A6Y8); details: previously demonstrated; cited from earlier work
HCT116 cells [1] = assay: cells
Procedure: (§1) FIG. 11. […] Parallel wells of untreated cells were used as negative control. Cell viability was assessed by using the trypan blue assay. Percentage of alive cells for each treatment are calculated as percentage using the untreated cell as reference. […] Statistical differences were tested using Student's t test. All statistical tests were two sided. p=***<0.001, **<0.01, *<0.05, ns=not significant.
as §1, with “14.” for “11.”, “p=*<0.05,” for “p=***<0.001,”, “***<0.001.” for “*<0.05, ns=not significant.”
(§2) To determine the effects of eM and eF-DnaKs on HCT116 and AGS cells lines treated with different anti-cancer drugs, cells were plated 200,000 cells/well in 6-wells plates. After 24 h, both eM-DnaK and eF-DnaK were added to the cultures at a concentration of 10 ug/ml. […] Parallel cultures of untreated cells were the negative controls. […] After 48 h of treatment with the anti-cancer drugs, cell monolayers were washed in PBS, trypsinized and cell viability was measured using the trypan blue assay. The trypan blue exclusion assay allows for a direct identification and enumeration of live (unstained) and dead (blue) cells in the given population.
(§3) More in detail, we pre-treated both exogenous DnaKs with ARV-1502 (25 μg/ml) before adding them to the culture of HCT116 or AGS cells. After 3 h of incubation the complex was added to the culture. After 24 h the cells were treated with the anti-cancer drugs and then subjected to count with trypan blue as previously described. Parallel cultures of cells treated with the drugs and DnaKs not complexed with ARV-1502 were used as control.

AGS cells = assay: cells
Procedure: as §1
as §1, with “14.” for “11.”, “p=*<0.05,” for “p=***<0.001,”, “***<0.001.” for “*<0.05, ns=not significant.”
as §2, §3

[2] = target: eM-DnaK (Mycoplasma fermentans DnaK); assay: Surface plasmon resonance (SPR) binding of ARV-1502 to immobilized eM-DnaK; details: 2274.9 RU eM-DnaK on CM5 chip, HBS-EP, 25° C., preliminary kinetic analysis
Procedure: (§4) FIG. 17. A) Direct binding of eM-DnaK to ARV-1502 as determined by surface plasmon resonance (SPR). Association of ARV-1502 at different concentrations on 2274.9 response units of eM-DnaK immobilized on a CM5 biosensor chip proceeded at a flow rate of […] for 250 sec, followed by a 600 sec dissociation in HBS-EP.
Surface plasmon resonance (SPR) binding studies of DnaK and ARV-1502 were performed at 25° C. on a BIAcore T100 System (BIAcore, Inc., Piscataway, NY). We used as assay buffer HBS-EP, containing 10 mM HEPES, 150 mM NaCl, 0.05% surfactant P20, pH 7.4, 3 mM EDTA. DnaK (2274.9 RUs) was immobilized on CM5 sensor chips using the amine-coupling chemistry recommended by the manufacturer. Analytes were introduced into the flow cells at 35 μl/min in the running buffer. Association and dissociation were assessed for 250 seconds and 600 seconds. Resonance signals were corrected for nonspecific binding by subtracting the background of the control flow-cell. After each analysis, the sensor chip surfaces were regenerated with 10 mM glycine solution (pH 2.0) with MgCl 1M and equilibrated with the buffer before the next injection.

[3] = test system: primary murine cancer cells constitutively expressing DnaK
HCT116 cells [4] = assay: Western blot of eM-DnaK entry into HCT116 cells after incubation with ARV-1502; format: cell-based, human; details: eM-DnaK incubated 3 hours with ARV-1502, added to cells 24 hours, then cisplatin 48 hours
Procedure: as §4
Western blot was performed to verify the expression of DnaK in the mouse primary cancer cells, in the internalization of the exogenous DnaKs and to validate DnaK binding with ARV-1502. […] After 72 h since eM-DnaK treatment, cell monolayers were washed in cold PBS, trypsinized and resuspended in RIPA lysis buffer (Sigma-Aldrich, St. Louis, MO) in the presence of protease inhibitors (Sigma-Aldrich, St. Louis, MO). The protein concentration was measured by the Bradford assay (Bio-Rad Laboratories, Hercules, CA). Thirty micrograms of protein were resolved by SDS/PAGE, transferred to a polyvinylidene difluoride (PVDF) membrane using trans-blot turbo transfer system (Bio-Rad Laboratories, Hercules, CA), blocked in 5% nonfat dried milk in Tris-Buffered Saline (TBS) and probed overnight with either a mouse mAb against the V5 tag (#R960-25, Thermo Fisher Scientific, Walthman, MA) to detect the presence of eM-DnaK or a mouse mAb against […] (8H10D10) (#3700, Cell Signaling Technology, Danvers, MA). […]

human Hsp70 = human Hsp70 (Homo sapiens, UniProt P0DMV8); details: previously demonstrated; cited from earlier work
Chain of human Hsp70 (P0DMV8 whole entry): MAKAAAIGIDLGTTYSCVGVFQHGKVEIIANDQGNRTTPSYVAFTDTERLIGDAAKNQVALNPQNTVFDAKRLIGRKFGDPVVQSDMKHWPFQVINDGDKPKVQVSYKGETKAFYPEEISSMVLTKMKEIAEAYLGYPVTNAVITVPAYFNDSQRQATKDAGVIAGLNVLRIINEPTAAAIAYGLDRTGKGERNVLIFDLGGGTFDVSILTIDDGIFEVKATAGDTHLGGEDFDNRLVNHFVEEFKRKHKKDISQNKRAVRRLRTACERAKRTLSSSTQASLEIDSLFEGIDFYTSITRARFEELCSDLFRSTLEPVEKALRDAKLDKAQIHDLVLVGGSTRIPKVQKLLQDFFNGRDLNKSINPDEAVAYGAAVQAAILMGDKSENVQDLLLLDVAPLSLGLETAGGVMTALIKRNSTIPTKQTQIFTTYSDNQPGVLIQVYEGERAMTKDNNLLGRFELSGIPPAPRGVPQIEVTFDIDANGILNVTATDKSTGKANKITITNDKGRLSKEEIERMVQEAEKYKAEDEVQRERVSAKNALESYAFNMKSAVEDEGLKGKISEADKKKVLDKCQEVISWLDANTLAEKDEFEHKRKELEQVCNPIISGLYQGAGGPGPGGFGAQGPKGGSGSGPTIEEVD

Chain of Escherichia coli DnaK (P0A6Y8 whole entry): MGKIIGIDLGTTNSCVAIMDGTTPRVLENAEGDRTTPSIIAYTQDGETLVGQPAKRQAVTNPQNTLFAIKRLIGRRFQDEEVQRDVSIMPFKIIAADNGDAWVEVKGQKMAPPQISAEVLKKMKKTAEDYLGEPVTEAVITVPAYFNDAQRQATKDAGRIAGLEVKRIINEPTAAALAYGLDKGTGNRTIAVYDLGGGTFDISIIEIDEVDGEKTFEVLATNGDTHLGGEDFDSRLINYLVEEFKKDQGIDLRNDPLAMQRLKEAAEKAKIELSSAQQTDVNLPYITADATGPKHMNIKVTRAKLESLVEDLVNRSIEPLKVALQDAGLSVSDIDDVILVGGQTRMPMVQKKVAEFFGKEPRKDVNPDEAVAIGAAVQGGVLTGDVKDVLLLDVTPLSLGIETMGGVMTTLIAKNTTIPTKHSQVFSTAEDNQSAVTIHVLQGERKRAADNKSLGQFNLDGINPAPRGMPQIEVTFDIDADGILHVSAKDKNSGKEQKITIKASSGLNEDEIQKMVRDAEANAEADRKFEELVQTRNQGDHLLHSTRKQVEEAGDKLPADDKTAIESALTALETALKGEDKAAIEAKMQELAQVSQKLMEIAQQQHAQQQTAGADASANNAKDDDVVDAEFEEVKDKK

CC(C)C[C@H](NC(=O)[C@H](Cc1ccc(O)cc1)NC(=O)[C@@H]1CCCN1C(=O)[C@H](CCCNC(=N)N)NC(=O)[C@@H]1CCCN1C(=O)[C@H](CCCCN)NC(=O)[C@H](CC(=O)O)NC(=O)[C@@H]1CCCN1C(=O)[C@H](CCCNC(=N)N)NC(=O)C1(N)CCCCC1)C(=O)N1CCC[C@H]1C(=O)N[C@@H](CCCNC(=N)N)C(=O)N1CCC[C@H]1C(=O)N[C@@H](CCCNC(=N)N)C(=O)N1CCC[C@H]1C(=O)N1CCC[C@H]1C(=O)N[C@@H](CCCNC(=N)N)C(=O)N1CCC[C@H]1C(=O)N[C@H](C(=O)N[C@@H](CCCNC(=N)N)C(N)=O)C(C)C [ARV-1502] (H-[Ac6c]RPDKPRPYLPRPRPPRPVR-NH2; N-terminus and C-terminus assumed)
DnaK binding and ATPase activity (Escherichia coli DnaK): bind the Escherichia coli DnaK substrate-binding domain and to reduce its ATPase activity | reduction in cell viability (HCT116 cells [1]; HCT116, ARV-1502 alone, on average (data not shown)): 5-8% | restoration of anti-cancer activity of cisplatin and 5FU (HCT116 cells [1]; HCT116, in the presence of eF-DnaK pre-treated with ARV-1502 (25 μg/ml)): able to restore the drugs' anti-cancer activity | restoration of anti-cancer activity of cisplatin and 5FU (HCT116 cells [1]; HCT116, in the presence of eM-DnaK pre-treated with ARV-1502 (25 μg/ml)): restoration of the original anti-cancer activity of each drug | reduction in cell viability (AGS cells; ARV-1502 alone, on average (data not shown)): 5-8% | restoration of anti-cancer activity of cisplatin and 5FU (AGS cells; in the presence of eF-DnaK pre-treated with ARV-1502 (25 μg/ml)): able to restore the drugs' anti-cancer activity | restoration of anti-cancer activity of cisplatin and 5FU (AGS cells; in the presence of eM-DnaK pre-treated with ARV-1502 (25 μg/ml)): restoration of the original anti-cancer activity of each drug | Kd [2]: 1900 nM | inhibitory effect ([3]; ARV-1502 alone): 11% | improved anti-cancer effect ([3]; ARV-1502 with cisplatin or 5FU versus drug alone, for both drugs): 25% | eM-DnaK entry into HCT116 cells (HCT116 cells [4]): does not prevent eM-DnaK entry into HCT116 cells | interaction with human Hsp70 (human Hsp70): without interacting with human Hsp70
